Measured values taken from article PMC8040520 (ACS chemical biology, 2020).

Test system: BolI
Test: steady-state kinetics, CoA production
Format: biochemical, Bradyrhizobium oligotrophicum
Conditions: co-substrate SAM presumed; details in supplement

- Km: 3 µM
Compound: CC(C)(COP(=O)(O)OP(=O)(O)OC[C@H]1O[C@@H](n2cnc3c(N)ncnc32)[C@H](O)[C@@H]1OP(=O)(O)O)[C@@H](O)C(=O)NCCC(=O)NCCSC(=O)/C=C/c1ccccc1 [cinnamoyl-CoA]
